Literature values as cited in patent US6783752B2, “Contrast agents” (Amersham Health AS, priority 1996, dated 2004).

Columns and labels:
[1] = in vivo
coronary blood flow = conditions: in vivo

blood pool half-life [1]: 2 s
Compound: Nc1ncnc2c1ncn2[C@@H]1O[C@H](CO)[C@@H](O)[C@H]1O [adenosine]
increase in coronary blood flow in healthy myocardial tissue (coronary blood flow): in excess of fourfold increases in coronary blood flow
